{"source": "patent US12458621B1", "about": "“Application of genipin beta-methyl derivative gen-17 in preparation of drug for prevention and treatment of acute severe pneumonia” (KUNMING MEDICAL UNIVERSITY, priority 2024, dated 2025)", "format_in_all_cases": "in vivo, Kunming mice", "key": {"[1]": {"test_system": "LPS-induced ALI mice", "test": "Total cell count in BALF", "method": "(§1) A total of 144 SPF-grade healthy Kunming mice, aged 5-7 weeks and weighing 18-22 g, are weighed and randomly allocated into six experimental groups: control group (NS), model group (LPS), dexamethasone group (DEX, […] per kilogram abbreviated as mg/kg), genipin beta-methyl derivative low-dose group (12.5 mg/kg), genipin beta-methyl derivative medium-dose group (25 mg/kg), and genipin beta-methyl derivative high-dose group (50 mg/kg), 24 animals per group, in which 12 animals are used to take lung tissue for the detection of other indicators, and another 12 animals are used to collect BALF.\n(§2) All mice are gavaged with a same volume of 0.9% normal saline once a day in the NS group and the LPS group, DEX solution (0.39 mg/kg) is gavaged once a day in the DEX group, low-dose Gen-17 solution (12.5 mg/kg) is gavaged once a day in the medium-dose Gen-17 group, medium-dose Gen-17 solution (25 mg/kg) is gavaged once a day in the high-dose Gen-17 group, and high-dose Gen-17 solution (50 mg/kg) is gavaged once a day in the high-dose Gen-17 group. The dosage is converted according to the weight of the mice, and the gavage volume is 20 milliliters per kilogram (mL/kg), and the gavage is continued for 3 days. One hour after the gavage on the third day, the ALI model is established by tracheal instillation of LPS solution. The specific experimental procedures are as follows. • (1) Before the operation, the mice are anesthetized by intraperitoneal injection of 1% sodium pentobarbital (30 mg/kg) according to their body weight. • (2) Limbs of anesthetized mice are fixed with rubber bands, teeth are wired with thin threads, and neck skin is disinfected with 75% alcohol. • (3) A subcutaneous tissue is separated along a longitudinal incision in a middle of the mouse neck until a cartilage ring appeared in an exposed trachea. • (4) A microinjector is inserted into the trachea in parallel towards a proximal end for about 1 centimeter (cm). Sterile NS is slowly dripped into the trachea of the control group, and LPS is dripped into the trachea of the other groups. • (5) After pulling out the microinjector, the mice are upright immediately, rotated and shaken evenly for 2 minutes (min), then the neck wound is sutured, and the state of the mice is observed. After the mice are awake, they are raised as usual. 2.3 Treatment of Experimental Animals and Collection of Lung Tissue Specimens\nBALF is collected 24 hours after the establishment of the animal model. First, the remaining 12 mice in each group are weighed, and then BALF is extracted. The extracted BALF is used for total cell count, total protein content determination and enzyme-linked immunosorbent assay (ELISA) determination of IL-1B, IL-6 and TNF-α in BALF. The specific experimental procedures are as follows. • (1) After weighing, the mice are anesthetized by intraperitoneal injection of pentobarbital sodium according to their weight; • (2) When the tail root, hind limbs, eyelash reflex and other activities of mice disappear, and the mice breathe slowly and evenly, the limbs and teeth of mice are fixed, the neck skin of mice is disinfected with 75% alcohol, and the neck tissue is opened longitudinally, so that the tracheal cartilage ring is exposed. Tracheal puncture is performed with a 19G trocar catheter, the needle is inserted for about 1 cm, the needle core is pulled out, a 1 ml syringe is connected, and precooled normal saline (0.8 mL/time, repeat 2 times) is slowly injected. […]"}, "[2]": {"test_system": "Nrf2", "test": "Nrf2 protein in lung tissue by WB", "method": "(§3) The dosage is converted according to the weight of the mice, and the gavage volume is 20 milliliters per kilogram (mL/kg), and the gavage is continued for 3 days. One hour after the gavage on the third day, the ALI model is established by tracheal instillation of LPS solution. […] After the mice are awake, they are raised as usual. 2.3 Treatment of Experimental Animals and Collection of Lung Tissue Specimens\n(§4) Samples are collected 24 hours after the animal model is established. The mice are weighed and 12 mice in each group are sacrificed. Lung tissues are collected and the whole lung wet weight is measured. […] After tidying, the lungs are photographed, excess tissues such as the trachea are cleared away, and the wet weight of the whole lung is measured to calculate the lung index. • (3) The upper lobe of the left lung is fixed in 4% neutral paraformaldehyde, fixed for 24 hours, paraffin-embedded and sectioned for HE staining. • (4) The remaining lung tissues are put into centrifugal tubes separately, quickly frozen in liquid nitrogen, and then stored at −80° C. after the experiment, which is used for the detection of MDA, SOD, western blotting (WB) and reverse transcription polymerase chain reaction (RT-PCR). […]\n(§5) The lung tissue is taken out from −80° C., and its weight is accurately measured. […]"}, "[3]": {"test_system": "MDA", "test": "MDA content in lung tissue", "conditions": "after drug treatment, compared with LPS group", "method": "as §1, with “BALF. […]” for “BALF.”\nas §4, with “The mice are weighed and 12 mice in each group are sacrificed.” left out"}, "[4]": {"test_system": "LPS-induced ALI mice", "test": "Lung index (lung wet weight/body weight), LPS-induced ALI mice", "method": "as §1, §2\nas §4, with “measured. The lung tissues are packaged for hematoxylin and eosin (HE) staining, MDA and SOD content determination, gene and protein detection.” for “measured.”"}, "[5]": {"test_system": "SOD", "test": "SOD activity in lung tissue", "conditions": "compared with LPS group", "method": "as §3, §4\nThe lung tissue is taken out from −80° C., and its weight is accurately measured."}, "[6]": {"test_system": "IL-6", "test": "IL-6 mRNA in lung tissue by qRT-PCR", "method": "as §1, with “BALF. […]” for “BALF.”\nas §4, with “The mice are weighed and 12 mice in each group are sacrificed.” left out"}, "[7]": {"test_system": "Keap1", "test": "Keap1 protein in lung tissue by WB", "method": "as §3, §4, §5"}, "[8]": {"test_system": "IL-1β", "test": "IL-1β mRNA in lung tissue by qRT-PCR", "conditions": "Gen-17 (12.5, 25, 50 mg/kg gavage) compared with LPS group (P<0.001)", "method": "as §1, with “BALF. […]” for “BALF.”\nas §4, with “The mice are weighed and 12 mice in each group are sacrificed.” left out"}, "[9]": {"test_system": "iNOS", "test": "iNOS mRNA in lung tissue by qRT-PCR", "conditions": "Gen-17 (12.5, 25, 50 mg/kg gavage) compared with LPS group (P<0.001)", "method": "as §1, with “BALF. […]” for “BALF.”\nas §4, with “The mice are weighed and 12 mice in each group are sacrificed.” left out"}, "[10]": {"conditions": "Gen-17 12.5, 25, 50 mg/kg gavage, ALI mice"}, "[11]": {"conditions": "high-dose Gen-17 50 mg/kg gavage, compared with LPS group"}}, "data": [{"smiles": "COC(=O)C1=CO[C@@H](OC)[C@@H]2C(COC(=O)c3cccc(Br)c3)=CC[C@H]12", "note": "[Gen-17, genipin beta-methyl derivative]", "values": [{"measurement": "total cell counts in BALF", "setting": "[1]; Gen-17 groups (12.5, 25, 50 mg/kg gavage) compared with LPS group (P<0.001)", "value": "decreased significantly"}, {"measurement": "total cell counts in BALF", "setting": "[1]; low-dose Gen-17 12.5 mg/kg gavage, compared with DEX group (P<0.01)", "value": "significantly increased"}, {"measurement": "total cell counts in BALF", "setting": "[1]; low-dose Gen-17 12.5 mg/kg gavage, compared with NS group (P<0.001)", "value": "significantly increased"}, {"measurement": "total cell counts in BALF", "setting": "[1]; middle-dose Gen-17 25 mg/kg gavage, compared with DEX group (P<0.01)", "value": "significantly increased"}, {"measurement": "total cell counts in BALF", "setting": "[1]; middle-dose Gen-17 25 mg/kg gavage, compared with NS group (P<0.001)", "value": "significantly increased"}, {"measurement": "expression of Nrf2 protein in lung tissue, overall result", "setting": "[2]; [10]", "value": "upregulate the expression of Nrf2 and HO-1 protein"}, {"measurement": "expression of Nrf2 protein in lung tissue (increase)", "setting": "[2]; medium-dose Gen-17 25 mg/kg gavage, compared with LPS group (P<0.05)", "value": "statistically significant"}, {"measurement": "MDA content in the lung tissue homogenate", "setting": "[3]", "value": "reduce the MDA content"}, {"measurement": "degree of pulmonary edema (lung index), overall result", "setting": "[4]; [10]", "value": "reduce the degree of pulmonary edema in ALI mice to varying degrees"}, {"measurement": "lung index", "setting": "[4]; Gen-17 groups (12.5, 25, 50 mg/kg gavage) compared with NS group", "value": "statistically significant (P<0.05)"}, {"measurement": "lung index", "setting": "[4]; [11]", "value": "statistically significant (P<0.01)"}, {"measurement": "lung index", "setting": "[4]; low-dose Gen-17 12.5 mg/kg gavage, compared with DEX group (P<0.05)", "value": "increases most significantly"}, {"measurement": "lung index", "setting": "[4]; medium-dose Gen-17 25 mg/kg gavage, compared with LPS group", "value": "statistically significant (P<0.01)"}, {"measurement": "SOD activity in lung tissue", "setting": "[5]; after drug treatment", "value": "significantly increase the SOD activity"}, {"measurement": "SOD activity in lung tissue (increase)", "setting": "[5]; high-dose Gen-17 50 mg/kg gavage", "value": "statistical significance (P<0.05)"}, {"measurement": "mRNA expression of IL-6 in lung tissue", "setting": "[6]; Gen-17 (12.5, 25, 50 mg/kg gavage) compared with LPS group (P<0.001)", "value": "significantly reduce the expression"}, {"measurement": "mRNA expression of IL-6 in lung tissue", "setting": "[6]; low-dose Gen-17 12.5 mg/kg gavage, compared with DEX group (P<0.001)", "value": "statistical significance"}, {"measurement": "expression of Keap1 protein in lung tissue, overall result", "setting": "[7]; [10]", "value": "downregulate the expression of Keap1 protein"}, {"measurement": "expression of Keap1 protein in lung tissue (decrease)", "setting": "[7]; [11]", "value": "statistically significant (P<0.001)"}, {"measurement": "mRNA expression of IL-1β in lung tissue", "setting": "[8]", "value": "significantly reduce the expression"}, {"measurement": "mRNA expression of iNOS in lung tissue", "setting": "[9]", "value": "significantly reduce the expression"}]}]}
